# In patent US20080200337A1, “Mixed herbicide compositions for paddy field” (Bayer CropScience, priority 2007, published 2008):
# What was measured:
# Type in all cases: in vivo
# [1] = tested on: Cyperus serotinus Rottboel; experiment: Weed control, flooded paddy field, treatment at 1 leaf-stage (Test Example 1); conditions: after 4 weeks
# Method: (§1) Carrier: 5 parts by weight of acetone
# (§2) Surfactant: one part by weight of benzyloxy polyglycol ether.
# (§3) Above described carrier and surfactant are mixed with one part by weight of the active compound ((a) ingredient and (b) ingredient) and the resulting preparation is then diluted with water to obtain given amount of the test drug (the formulation).
# (§4) In a greenhouse, seeds or tubers of Echinochloa, Scirpus juncoides Roxburgh, Monochoria vaginalis Presl, annual broad-leaved weeds (Lindernia procumbens Philcox, Lindernia dubia L. Penn., Rotala indica Koehne, Elatine triandra Schk, Ammannia multiflora Roxb.), Cyperus serotinus Rottboel and Sagittaria pygmaea Miq. were inoculated in a 500 cm^2 pot filled with paddy field soil. After 2 leaf-stage of rice were transplanted, water was poured to a depth of about 3 cm. At 1.0 leaf-stage of Echinochloa oryzicola Vasing, a prescribed, diluted solution of the formulation of each active compound and each herbicidal compound in the table was separately or simultaneously applied to the surface of water. After the treatment, the water depth of 3 cm was maintained, and herbicidal effect was examined after 4 weeks. In the assessment of the herbicidal effect and the phytotoxicity, 100% refers to complete death and 0% refers to no effect or no phytotoxicity.
# [2] = tested on: Echinochloa; experiment: as above; conditions: after 4 weeks
# Method: as §1, §2, §3, §4
# [3] = tested on: Monochoria vaginalis Presl; experiment: as above; conditions: after 4 weeks
# Method: as §1, §2, §3, §4
# [4] = tested on: Sagittaria pygmaea Miq.; experiment: as above; conditions: after 4 weeks
# Method: as §1, §2, §3, §4
# [5] = tested on: Scirpus juncoides Roxburgh; experiment: as above; conditions: after 4 weeks
# Method: as §1, §2, §3, §4
# [6] = tested on: annual broad-leaved weeds; experiment: as above; conditions: after 4 weeks
# Method: as §1, §2, §3, §4
# [7] = tested on: transplanted rice; experiment: Phytotoxicity, flooded paddy field, treatment at 1 leaf-stage (Test Example 1)
# Method: as §1, §2, §3, §4
# [8] = tested on: Cyperus serotinus Rottboel; experiment: Weed control, flooded paddy field, treatment at 3 leaf-stage (Test Example 2); conditions: after 4 weeks
# Method: as §1, §2, §3
# as §4, with “Echinochloa, Cyperus difformis L.,” for “Echinochloa,”, “3.0” for “1.0”, “Echinochloa,” for “Echinochloa oryzicola Vasing,”
# [9] = tested on: Echinochloa; experiment: as above; conditions: after 4 weeks
# Method: as §1, §2, §3
# as §4, with “Echinochloa, Cyperus difformis L.,” for “Echinochloa,”, “3.0” for “1.0”, “Echinochloa,” for “Echinochloa oryzicola Vasing,”
# [10] = tested on: Monochoria vaginalis Presl; experiment: as above; conditions: after 4 weeks
# Method: as §1, §2, §3
# as §4, with “Echinochloa, Cyperus difformis L.,” for “Echinochloa,”, “3.0” for “1.0”, “Echinochloa,” for “Echinochloa oryzicola Vasing,”
# [11] = tested on: Sagittaria pygmaea Miq.; experiment: as above; conditions: after 4 weeks
# Method: as §1, §2, §3
# as §4, with “Echinochloa, Cyperus difformis L.,” for “Echinochloa,”, “3.0” for “1.0”, “Echinochloa,” for “Echinochloa oryzicola Vasing,”
# [12] = tested on: Scirpus juncoides Roxburgh; experiment: as above; conditions: after 4 weeks
# Method: as §1, §2, §3
# as §4, with “Echinochloa, Cyperus difformis L.,” for “Echinochloa,”, “3.0” for “1.0”, “Echinochloa,” for “Echinochloa oryzicola Vasing,”
# [13] = tested on: annual broad-leaved weeds; experiment: as above; conditions: after 4 weeks
# Method: as §1, §2, §3
# as §4, with “Echinochloa, Cyperus difformis L.,” for “Echinochloa,”, “3.0” for “1.0”, “Echinochloa,” for “Echinochloa oryzicola Vasing,”
# [14] = tested on: transplanted rice; experiment: Phytotoxicity, flooded paddy field, treatment at 3 leaf-stage (Test Example 2)
# Method: as §1, §2, §3
# as §4, with “Echinochloa, Cyperus difformis L.,” for “Echinochloa,”, “3.0” for “1.0”, “Echinochloa,” for “Echinochloa oryzicola Vasing,”
structure (smiles),measurement,setting,value
"Cc1ccc(C(=O)COc2c(C(=O)c3ccc(Cl)c(C)c3Cl)c(C)nn2C)cc1 [(b-3), benzofenap]",Herbicidal effect (%) CYPSEE,[1]; 800 g ai/ha,20%
same,Herbicidal effect (%) ECHSS,[2]; 800 g ai/ha,80%
same,Herbicidal effect (%) MOOVP,[3]; 800 g ai/ha,80%
same,Herbicidal effect (%) SAGPY,[4]; 800 g ai/ha,70%
same,Herbicidal effect (%) SCPSS,[5]; 800 g ai/ha,70%
same,Herbicidal effect (%) BBBBB,[6]; 800 g ai/ha,100%
same,Phytotoxicity (%) ORYSP,"[7]; 800 g ai/ha, treatment at 1 leaf-stage, after 4 weeks",0%
same,Herbicidal effect (%) CYPSEE,[8]; 800 g ai/ha,0%
same,Herbicidal effect (%) ECHSS,[9]; 800 g ai/ha,10%
same,Herbicidal effect (%) MOOVP,[10]; 800 g ai/ha,50%
same,Herbicidal effect (%) SAGPY,[11]; 800 g ai/ha,60%
same,Herbicidal effect (%) SCPSS,[12]; 800 g ai/ha,0%
same,Herbicidal effect (%) BBBBB,[13]; 800 g ai/ha,70%
same,Phytotoxicity (%) ORYSP,"[14]; rice, in vivo, 4 weeks",0%
"COC(=O)c1ccccc1CS(=O)(=O)NC(=O)Nc1nc(OC)cc(OC)n1 [(b-4), bensulfuron methyl]",Herbicidal effect (%) CYPSEE,[1]; 50 g ai/ha,85%
same,Herbicidal effect (%) ECHSS,[2]; 50 g ai/ha,50%
same,Herbicidal effect (%) MOOVP,[3]; 50 g ai/ha,90%
same,Herbicidal effect (%) SAGPY,[4]; 50 g ai/ha,90%
same,Herbicidal effect (%) SCPSS,[5]; 50 g ai/ha,90%
same,Herbicidal effect (%) BBBBB,[6]; 50 g ai/ha,90%
same,Phytotoxicity (%) ORYSP,"[7]; rice, in vivo, 4 weeks",0%
same,Herbicidal effect (%) CYPSEE,[8]; 50 g ai/ha,80%
same,Herbicidal effect (%) ECHSS,[9]; 50 g ai/ha,20%
same,Herbicidal effect (%) MOOVP,[10]; 50 g ai/ha,90%
same,Herbicidal effect (%) SAGPY,[11]; 50 g ai/ha,80%
same,Herbicidal effect (%) SCPSS,[12]; 50 g ai/ha,85%
same,Herbicidal effect (%) BBBBB,[13]; 50 g ai/ha,90%
same,Phytotoxicity (%) ORYSP,"[14]; rice, in vivo, 4 weeks",0%
"CCN(C(=O)n1nnn(-c2ccccc2Cl)c1=O)C1CCCCC1 [(b-6), fentrazamide]",Herbicidal effect (%) CYPSEE,[1]; 300 g ai/ha,95%
same,Herbicidal effect (%) ECHSS,[2]; 300 g ai/ha,95%
same,Herbicidal effect (%) MOOVP,[3]; 300 g ai/ha,95%
same,Herbicidal effect (%) SAGPY,[4]; 300 g ai/ha,50%
same,Herbicidal effect (%) SCPSS,[5]; 300 g ai/ha,95%
same,Herbicidal effect (%) BBBBB,[6]; 300 g ai/ha,85%
same,Phytotoxicity (%) ORYSP,"[7]; 300 g ai/ha, treatment at 1 leaf-stage, after 4 weeks",0%
same,Herbicidal effect (%) CYPSEE,[8]; 300 g ai/ha,75%
same,Herbicidal effect (%) ECHSS,[9]; 300 g ai/ha,69%
same,Herbicidal effect (%) MOOVP,[10]; 300 g ai/ha,55%
same,Herbicidal effect (%) SAGPY,[11]; 300 g ai/ha,50%
same,Herbicidal effect (%) SCPSS,[12]; 300 g ai/ha,80%
same,Herbicidal effect (%) BBBBB,[13]; 300 g ai/ha,55%
same,Phytotoxicity (%) ORYSP,"[14]; 300 g ai/ha, treatment at 3 leaf-stage, after 4 weeks",0%
"CS(=O)(=O)c1ccc(C(=O)C2C(=O)CCCC2=O)c(Cl)c1COCC1CCCO1 (stereo not drawn) [(b-7), 2-{2-chloro-4-mesyl-3-[(tetrahydrofuran-2-ylmethoxy)methyl]-benzoyl}-cyclohexan-1,3-dione]",Herbicidal effect (%) CYPSEE,[1]; 200 g ai/ha,90%
same,Herbicidal effect (%) ECHSS,[2]; 200 g ai/ha,95%
same,Herbicidal effect (%) MOOVP,[3]; 200 g ai/ha,90%
same,Herbicidal effect (%) SAGPY,[4]; 200 g ai/ha,90%
same,Herbicidal effect (%) SCPSS,[5]; 200 g ai/ha,95%
same,Herbicidal effect (%) BBBBB,[6]; 200 g ai/ha,90%
same,Phytotoxicity (%) ORYSP,"[7]; 200 g ai/ha, treatment at 1 leaf-stage, after 4 weeks",0%
same,Herbicidal effect (%) CYPSEE,[8]; 200 g ai/ha,70%
same,Herbicidal effect (%) ECHSS,[9]; 200 g ai/ha,70%
same,Herbicidal effect (%) MOOVP,[10]; 200 g ai/ha,95%
same,Herbicidal effect (%) SAGPY,[11]; 200 g ai/ha,80%
same,Herbicidal effect (%) SCPSS,[12]; 200 g ai/ha,88%
same,Phytotoxicity (%) ORYSP,"[14]; rice, in vivo, 4 weeks",0%
"COCc1cccc(C(O)c2nc(OC)cc(OC)n2)c1NS(=O)(=O)C(F)F (stereo not drawn) [(b-8), pyrimisulfan]",Herbicidal effect (%) CYPSEE,[1]; 50 g ai/ha,95%
same,Herbicidal effect (%) ECHSS,[2]; 50 g ai/ha,95%
same,Herbicidal effect (%) MOOVP,[3]; 50 g ai/ha,95%
same,Herbicidal effect (%) SAGPY,[4]; 50 g ai/ha,90%
same,Herbicidal effect (%) SCPSS,[5]; 50 g ai/ha,95%
same,Herbicidal effect (%) BBBBB,[6]; 50 g ai/ha,95%
same,Phytotoxicity (%) ORYSP,"[7]; 50 g ai/ha, treatment at 1 leaf-stage, after 4 weeks",15%
same,Herbicidal effect (%) CYPSEE,[8]; 50 g ai/ha,90%
same,Herbicidal effect (%) ECHSS,[9]; 50 g ai/ha,85%
same,Herbicidal effect (%) MOOVP,[10]; 50 g ai/ha,95%
same,Herbicidal effect (%) SAGPY,[11]; 50 g ai/ha,85%
same,Herbicidal effect (%) SCPSS,[12]; 50 g ai/ha,90%
same,Herbicidal effect (%) BBBBB,[13]; 50 g ai/ha,85%
same,Phytotoxicity (%) ORYSP,"[14]; 50 g ai/ha, treatment at 3 leaf-stage, after 4 weeks",5%
